Data taken from article PMC10317891, “Fibroblast activation protein targeted radiotherapy induces an immunogenic tumor microenvironment and enhances the efficacy of PD-1 immune checkpoint inhibition” (European Journal of Nuclear Medicine and Molecular Imaging, 2023).
Numbered stars: 1 amine (or outer) side, 2 acyl side, 3 side chain; on linkers, the order of the positions; unused ones are H or OH. Bridge positions count the residues as written; N and C are the ends. Peptide text beside a SMILES is read from it. * marks the point of attachment. X1 = O=C(O)CN1CCN(CC(=O)O)CCN(CC(=O)N2CCN(Cc3cc(C[*:1])cc(C[*:2])c3)CC2)CCN(CC(=O)O)CC1; Hexanoyl = CCCCCC(=O)*

Assay: Plasma stability
Type: in vitro ADME
Details: 10 µM, 37°C, UHPLC-QTOF MS with internal standard
Method: FAP-2287 was incubated in 50 µL of plasma with 3.8% sodium citrate as anticoagulant at a concentration of 10 µM. After 1, 2, 4, and 24 hours incubation at 37°C a suitable internal standard was added. FAP-2287 with plasma proteins were precipitated using 250 µL of a precipitation agent consisting of 1% trifluoroacetic acid in acetonitrile. Precipitation was carried out at room temperature for 30 minutes. After centrifugation at 18,200 relative centrifugal force (rcf) for 5 minutes, 100 µL of the supernatant was mixed with 100 µL of 1% formic acid.
A nonincubated plasma sample spiked with 10 µM sample concentration was prepared in the same way and was used as the reference. A pure plasma sample was incubated for 24 hours as a blank sample. A further pure plasma sample was incubated for 24 hours, processed as described above and spiked directly before analysis to determine the recovery. The samples were analyzed using an Agilent 1290 UHPLC system coupled to an Agilent 6530 QTOF mass spectrometer.
For the quantitative data analysis, the Agilent Quantitative Analysis B.08.00 software (RRID:SCR_015040) was used. The ion currents of the triply charged proton adducts of the compounds were extracted with a mass window of ±50 parts per million and the chromatographic peak was integrated. The concentration of the compound was determined by external matrix calibration with internal standard using 6 calibration samples (1, 2.5, 5, 7.5, 10, and 12.5 µM). A quadratic regression was performed. Carryover was determined by analyzing the blank sample directly after the highest calibration sample and comparing the determined peak areas. Recovery was calculated as the ratio between the spiked concentration of the recovery sample and the concentration calculated from the peak area of this sample.

Structure (SMILES): CCCCCC(=O)N[C@H]1CSCc2cc(cc(CN3CCN(C(=O)CN4CCN(CC(=O)O)CCN(CC(=O)O)CCN(CC(=O)O)CC4)CC3)c2)CSC[C@@H](C(=O)N[C@@H](CC(=O)O)C(N)=O)NC(=O)[C@H](Cc2ccccc2)NC(=O)[C@H](CCC(N)=O)NC(=O)[C@H]([C@@H](C)O)NC(=O)[C@@H]2CCCN2C(=O)[C@@H]2CCCN2C1=O [FAP-2287] (Hexanoyl-CPPTQFCD-NH2; linker 1-7 via X1)
- Plasma Stability (24 h) Human Plasma (human plasma with 3.8% sodium citrate): > 80%
- Plasma Stability (24 h) Mouse Plasma (mouse plasma with 3.8% sodium citrate): > 80%
